Data published in US20100222396A1 (Novartis AG, priority 2009, published 2010).

Assays:
[1] = target: T1, human orexin 1 receptor (hOx1R) (Homo sapiens, UniProt O43613); assay: Radioligand binding assay ([125I]orexin A competition), hOx1R; conditions: CHO or HEK cell membranes, 1 h room temperature
T1 construct: expressed in transfected cells
T1 sequence (O43613 1-425): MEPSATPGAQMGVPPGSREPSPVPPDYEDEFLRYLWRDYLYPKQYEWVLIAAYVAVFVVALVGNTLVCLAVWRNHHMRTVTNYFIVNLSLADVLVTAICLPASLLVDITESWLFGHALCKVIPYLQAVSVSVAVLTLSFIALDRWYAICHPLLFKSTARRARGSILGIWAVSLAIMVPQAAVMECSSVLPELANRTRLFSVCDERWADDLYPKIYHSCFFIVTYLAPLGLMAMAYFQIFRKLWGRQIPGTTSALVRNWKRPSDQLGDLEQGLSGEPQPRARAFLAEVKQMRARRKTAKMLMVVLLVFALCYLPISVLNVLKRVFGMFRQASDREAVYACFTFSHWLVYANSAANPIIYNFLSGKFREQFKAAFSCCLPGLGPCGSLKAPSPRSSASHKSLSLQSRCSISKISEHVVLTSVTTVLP
Method in brief: (§1)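 Membranes from CHO or HEK cells expressing the human receptor, incubated 1 h at room temperature with […] [125I]orexin A and compound in HEPES pH 7.5 buffer with BSA, MgCl2, CaCl2 and tween.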

[2] = target: T2, human orexin 2 receptor (hOx2R) (Homo sapiens, UniProt O43614); assay: Calcium accumulation in cells (FLIPR), antagonism of orexin A, hOx2R; format: cell-based; conditions: for Kd: cells expressing human orexin 2 receptor, IC50 vs orexin A converted by Cheng and Prusoff correction; for inhibition at 10 µM: measured at a concentration of 10 μM of compound (cells marked ^a)
T2 construct: expressed in transfected cells
T2 sequence (O43614 1-444): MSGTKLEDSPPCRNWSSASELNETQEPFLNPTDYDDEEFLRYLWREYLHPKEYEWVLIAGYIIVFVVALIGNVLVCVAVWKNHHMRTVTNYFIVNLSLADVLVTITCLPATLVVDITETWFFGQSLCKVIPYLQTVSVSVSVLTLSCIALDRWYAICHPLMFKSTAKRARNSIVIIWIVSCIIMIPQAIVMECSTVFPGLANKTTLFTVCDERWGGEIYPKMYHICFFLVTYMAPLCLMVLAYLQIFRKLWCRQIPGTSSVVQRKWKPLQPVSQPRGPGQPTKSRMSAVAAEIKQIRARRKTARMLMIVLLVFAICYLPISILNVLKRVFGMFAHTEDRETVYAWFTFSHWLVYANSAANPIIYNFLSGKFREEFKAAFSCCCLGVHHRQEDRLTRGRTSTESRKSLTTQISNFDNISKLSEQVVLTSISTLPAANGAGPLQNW
Method in brief: (§2)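 Serum-starved receptor-expressing cells were loaded with Fluo-4-AM (2 μM) plus probenecid (0.1 mM) in HEPES buffer, pH 7.4, with 1% BSA, and Ca2+ fluorescence was read on FLIPR. Compounds (10^−9–10^−5 M) were added first, and orexin A was added one hour later to measure antagonism.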

[3] = target: T2, human orexin 2 receptor (hOx2R); assay: Radioligand binding assay ([125I]orexin A competition), hOx2R; conditions: CHO or HEK cell membranes, 1 h room temperature
Method in brief: as §1

[4] = target: T1, human orexin 1 receptor (hOx1R); assay: Calcium accumulation in cells (FLIPR), antagonism of orexin A, hOx1R; format: cell-based; conditions: for Kd: cells expressing human orexin 1 receptor, IC50 vs orexin A converted by Cheng and Prusoff correction; for inhibition at 10 µM: measured at a concentration of 10 μM of compound (cells marked ^a)
Method in brief: as §2

Row | SMILES | Kd [1] [µM] | Kd [2] [µM] | Kd [3] [µM] | Kd [4] [µM] | inhibition at 10 µM [2] [%] | inhibition at 10 µM [4] [%]
1 | CN1CCc2cc(C(=O)N(C)[C@H](CCNC(=O)c3ccccn3)Cc3ccccc3)ccc21 [Example 55, 1-Methyl-2,3-dihydro-1H-indole-5-carboxylic acid {(S)-1-benzyl-3-[(pyridine-2-carbonyl)-amino]-propyl}-methyl-amide] | 0.075 | 1.29 | 1.76 | 1.64 | – | –
2 | CN(C(=O)c1ccc2c(c1)CCN2)[C@H](CCNC(=O)c1ccccn1)Cc1ccccc1 [Example 23, 2,3-Dihydro-1H-indole-5-carboxylic acid {(S)-1-benzyl-3-[(pyridine-2-carbonyl)-amino]-propyl}-methyl-amide] | 0.052 | 0.419 | 0.265 | 0.152 | – | –
3 | CN(C(=O)c1ccccc1)[C@H](CCNC(=O)c1ccccn1)Cc1ccc(F)cc1 [Example 66, Pyridine-2-carboxylic acid [(S)-3-(benzoyl-methyl-amino)-4-(4-fluoro-phenyl)-butyl]-amide] | > 10 | – | 7.12 | – | 33 | 0
4 | COc1cc(F)cc(C(=O)N(C)[C@H](CCNC(=O)c2cccn2C)Cc2ccccc2)c1 [Example 105, 1-Methyl-1H-pyrrole-2-carboxylic acid {(S)-3-[(3-fluoro-5-methoxy-benzoyl)-methyl-amino]-4-phenyl-butyl}-amide] | 0.286 | 0.007 | 0.012 | 0.811 | – | –
5 | COc1cc(OC)cc(C(=O)N(C)[C@H](CCNC(=O)c2ccccn2)Cc2ccccc2)c1 [Example 41, Pyridine-2-carboxylic acid {(S)-3-[(3,5-dimethoxy-benzoyl)-methyl-amino]-4-phenyl-butyl}-amide] | 1.73 | 0.196 | 0.484 | 1.6 | – | –
6 | CN(C(=O)c1ccc2ccccc2c1)[C@@H](CCNC(=O)c1ccccn1)Cc1ccccc1 [Example 43, Pyridine-2-carboxylic acid {(R)-3-[methyl-(naphthalene-2-carbonyl)-amino]-4-phenyl-butyl}-amide] | 2.25 | 0.203 | 0.607 | 0.941 | – | –
7 | CN(C(=O)c1ccc2c(c1)OC(F)(F)O2)[C@H](CCNC(=O)c1cccn1C)Cc1ccccc1 [Example 107, 1-Methyl-1H-pyrrole-2-carboxylic acid {(S)-3-[(2,2-difluoro-benzo[1,3]dioxole-5-carbonyl)-methyl-amino]-4-phenyl-butyl}-amide] | 2.51 | 0.054 | 0.162 | 1.07 | – | –
8 | CN(C(=O)c1cc(C(F)(F)F)cc(C(F)(F)F)c1)C(CCNC(=O)c1ccccn1)Cc1ccc(Cl)cc1 (stereo not drawn) [Example 16, Pyridine-2-carboxylic acid [3-[(3,5-bis-trifluoromethyl-benzoyl)-methyl-amino]-4-(4-chloro-phenyl)-butyl]-amide] | > 10 | 0.044 | 0.074 | 1.51 | – | –
9 | CN(C(=O)c1ccc2ccccc2c1)[C@H](CCNC(=O)c1ccccn1)Cc1ccc(Cl)cc1 [Example 53, Pyridine-2-carboxylic acid {(S)-4-(4-chloro-phenyl)-3-[methyl-(naphthalene-2-carbonyl)-amino]-butyl}-amide] | 3.41 | 0.748 | 1.46 | – | – | 13
10 | CN(C(=O)c1ccc2c(c1)OCC2)[C@H](CCNC(=O)c1cccn1C)Cc1ccccc1 [Example 117, 1-Methyl-1H-pyrrole-2-carboxylic acid {(S)-3-[(2,3-dihydro-benzofuran-6-carbonyl)-methyl-amino]-4-phenyl-butyl}-amide] | 0.444 | 0.065 | 0.081 | 0.987 | – | –
11 | CN(C(=O)c1cccc2c1ccn2C)[C@H](CCNC(=O)c1ccccn1)Cc1ccccc1 [Example 40, 1-Methyl-1H-indole-4-carboxylic acid {(S)-1-benzyl-3-[(pyridine-2-carbonyl)-amino]-propyl}-methyl-amide] | 0.125 | 0.221 | 0.619 | 0.193 | – | –
12 | CCCN(C(=O)c1cc(C(F)(F)F)cc(C(F)(F)F)c1)[C@H](CCNC(=O)c1ccccn1)Cc1ccccc1 [Example 22, Pyridine-2-carboxylic acid {(S)-3-[(3,5-bis-trifluoromethyl-benzoyl)-propyl-amino]-4-phenyl-butyl}-amide] | > 10 | 0.105 | 0.214 | 1.57 | – | –
13 | CN(C(=O)c1cccc(C(F)(F)F)c1)[C@H](CCNC(=O)c1ccccn1)Cc1ccccc1 [Example 4, Pyridine-2-carboxylic acid {(S)-3-[methyl-(3-trifluoromethyl-benzoyl)-amino]-4-phenyl-butyl}-amide] | 0.112 | 0.044 | 0.014 | 0.173 | – | –
14 | CN(C(=O)c1cccc2c1OCO2)[C@H](CCNC(=O)c1nc2ccccc2n1C)Cc1ccc(F)cc1 [Example 56, 1-Methyl-1H-benzoimidazole-2-carboxylic acid [(S)-3-[(benzo[1,3]dioxole-4-carbonyl)-methyl-amino]-4-(4-fluoro-phenyl)-butyl]-amide] | > 10 | – | 2.72 | – | 35 | 1
15 | CN(C(=O)c1ccc2c(c1)OCO2)[C@H](CCNC(=O)c1ccc2c(c1)OCO2)Cc1ccccc1 [Example 62, Benzo[1,3]dioxole-5-carboxylic acid {(S)-3-[(benzo[1,3]dioxole-5-carbonyl)-amino]-1-benzyl-propyl}-methyl-amide] | 0.222 | 0.022 | 0.047 | 0.872 | – | –
16 | CN(C(=O)c1ccc2cc[nH]c2c1)[C@H](CCNC(=O)c1ccccn1)Cc1ccccc1 [Example 64, 1H-Indole-6-carboxylic acid {(S)-1-benzyl-3-[(pyridine-2-carbonyl)-amino]-propyl}-methyl-amide] | 0.54 | 1.07 | 6.86 | 1.01 | – | –
17 | CN(C(=O)c1cc(C(F)(F)F)cc(C(F)(F)F)c1)[C@@H](CCNC(=O)c1ccccn1)Cc1ccccc1 [Example 74, Pyridine-2-carboxylic acid {(R)-3-[(3,5-bis-trifluoromethyl-benzoyl)-methyl-amino]-4-phenyl-butyl}-amide] | > 10 | 1.61 | > 10 | 3.26 | – | –
18 | CN(C(=O)c1ccccc1)[C@H](CCNC(=O)c1cccc2c1OCC2)Cc1ccccc1 [Example 67, 2,3-Dihydro-benzofuran-7-carboxylic acid [(S)-3-(benzoyl-methyl-amino)-4-phenyl-butyl]-amide] | 1.08 | 0.18 | 0.114 | – | – | 33
19 | CN(C(=O)c1cccc2ccccc12)[C@H](CCNC(=O)c1nc2ccccc2n1C)Cc1ccc(Cl)cc1 [Example 26, 1-Methyl-1H-benzoimidazole-2-carboxylic acid {(S)-4-(4-chloro-phenyl)-3-[methyl-(naphthalene-1-carbonyl)-amino]-butyl}-amide] | 3.28 | 0.01 | 0.308 | 0.122 | – | –
20 | CN(C(=O)c1cccc2c1OCO2)[C@H](CCNC(=O)c1ccccn1)Cc1ccc(F)cc1 [Example 63, Pyridine-2-carboxylic acid [(S)-3-[(benzo[1,3]dioxole-4-carbonyl)-methyl-amino]-4-(4-fluoro-phenyl)-butyl]-amide] | > 10 | – | 5.9 | – | 24 | 0
21 | CN(C(=O)c1ccc2occc2c1)[C@H](CCNC(=O)c1ccccn1)Cc1ccccc1 [Example 20, Pyridine-2-carboxylic acid {(8)-3-[(benzofuran-5-carbonyl)-methyl-amino]-4-phenyl-butyl}-amide] | 0.163 | 0.123 | 0.168 | 0.413 | – | –
